# According to patent US20240377400A1, “METHODS FOR TREATING A SUBTYPE OF COLORECTAL CANCER” (Cornell University, priority 2021, published 2024):
# Tested on: tumors from Prkci^fl/fl Prkcz^fl/fl Villin-cre (DKO) mice
# Experiment: scRNAseq and IHC of DKO mouse intestinal tumors treated with PVHA or Galunisertib
# Type: in vivo
# Protocol: FIG. 3A illustrates the experimental design: Prkci^fl/flPrkcz^fl/fl (DKO) mice were treated either with PVHA (0.0375 mg/Kg twice per week) or Galunisertib (10 mg twice daily) as described. Intestinal tumors were analyzed by scRNAseq.
# To identify the mechanism of action of PVHA in the treatment of CMS4 tumors, scRNAseq was performed using 10× Genomics Chromium platform on tumors from Prkci^fl/fl Prkcz^fl/fl Villin-cre (DKO) mice (n=5) treated with PVHA for 14 weeks (n=3), as compared to those treated with Galunisertib (GAL) for 17 weeks (n=3), as shown in experimental design (FIG. 3A). Unsupervised clustering identified tumor and normal epithelial cells as well as stromal and immune cells with selective markers for each population (FIGS. 3B-3C). […] Among tumor clusters (0,4,6), a cell population with transcriptomic similarities to the recently identified “revival stem cells” (RSC; high Clu) in the vehicle treated tumors was identified (FIGS. 3F-3G).
smiles,measurement,setting,value
"Cc1cccc(-c2nn3c(c2-c2ccnc4ccc(C(N)=O)cc24)CCC3)n1 [GAL, Galunisertib, reference compound]","Cd8 T cells, cell type proportion",scRNAseq T cells,increase
same,"fibroblast clusters associated with human CRC (Grem1/Sfrp1, Igf1/Cxcl14), CMS4 subtype (Sfrp2) and tumor initiation (Ptgs2/Spp1)",scRNAseq cell-type proportion,complete elimination
same,tumoral goblet population,scRNAseq goblet cells,reduction
same,"T cells, cell-type proportion",scRNAseq immune cells,increase
same,"myeloid cells, cell-type proportion",scRNAseq immune cells,decrease
same,TAN1 (anti-tumoral neutrophils),scRNAseq myeloid cells,only increased
same,TAN2 (pro-tumoral neutrophils),scRNAseq myeloid cells,without affecting
same,percentage of stromal and immune cells,"scRNAseq, PVHA 0.0375 mg/Kg twice per week, 14 weeks, Galunisertib 10 mg twice daily, 17 weeks",decreased
same,number of stromal cells,"scRNAseq, without apparent changes in cell-type proportions",reduced
